# Earlier results as cited in patent publication US8551962B2, “High dosage doramectin formulation” (Zoetis LLC, priority 2009, dated 2013).
# Settings: beef cattle; single dose of 200 μg/Kg of body weight
compound,measurement,value
CO[C@H]1C[C@H](O[C@H]2[C@H](C)O[C@@H](O[C@@H]3/C(C)=C/C[C@@H]4C[C@@H](C[C@]5(C=C[C@H](C)[C@@H](C6CCCCC6)O5)O4)OC(=O)[C@@H]4C=C(C)[C@@H](O)[C@H]5OC/C(=C\C=C\[C@@H]3C)[C@]54O)C[C@@H]2OC)O[C@@H](C)[C@@H]1O [doramectin],withhold time,35 days
